Earlier results in patent publication US6699701B1, “Method and device for sanitation using bacteriophages” (priority 2000, dated 2004).

System: bacterial counts
Details: fresh-cut fruits, most effective chemical sanitizer

SMILES: OO [hydrogen peroxide]
- maximum reduction rate in bacterial counts: ≤ 1.3 logs
